Assay results reported in US20100136022A1, “METHOD FOR MODULATING THE IMMUNE RESPONSE BY ACTIVATING OR INACTIVATING THE NOTCH AND/OR STAT4 SIGNAL PATH” (DEUTSCHES RHEUMA-FORSCHUNGSZENTRUM BERLIN, priority 2007, published 2010).

Columns and labels:
Notch = test: IL-10 expression in lymphatic node cells after transfer of OVA-specific Th cells and OVA/CpG immunization (Example 12); format: in vivo; settings: mice received 10 μM/kg; lymphatic node cells after 5 days; FIG. 13
Description: 1·10^7 antigen specific (OVA-TZR transgenic) naive Th cells were transferred into recipient mice which were subsequently immunized s.c. with 50 μg of OVA/20 μg of CpG. After 5 days the lymphatic node cells were restimulated with PMA/ionomycin and analyzed using intracellular cytokine staining. IFN-γ/IL-10 double-positive cells were induced under these conditions. The expression of IL-10 was blocked in mice which had received 10 μM/kg of a Notch inhibitor (γ-secretase inhibitor, DBZ, Syncom) (FIG. 13).

Notch signaling pathway [1] = test: IL-10 expression of human T cells cocultured with plasmacytoid or myeloid dendritic cells (Example 15); format: cell-based; settings: 85 nM inhibitor, SEB 1 μg/ml, 6 days
Notch signaling pathway [2] = test: IL-10 induction in T helper cells cocultured with A20-B cells expressing Notch ligands DII-1 or DII-4 (Example 9); format: cell-based, mouse; settings: 125 nM inhibitor; IL-12 10 ng/ml, OVA peptide, 5 days, intracellular staining; FIG. 10A
Description: Antigen-specific (OVA-TZR transgenic) naive CD4+CD25-CD62L+T helper cells were isolated using flow cytometry, cultured with A20-B cells (at a ratio of 2:1) in the presence of IL-12 (10 ng/ml), which cells express the Notch ligands DII-1 or DII-4, and stimulated with OVA peptide (0.2 μg/ml). After 5 days the cells were restimulated with PMA/ionomycin, and their cytokine expression was analyzed using intracellular staining.
This induction can be blocked in a specific manner by an inhibitor of the Notch signaling pathway (γ-secretase inhibitor, 125 nM Insolution γ-secretase inhibitor X, Calbiochem) (FIG. 10A). Further coculturing in the presence of the DII-1 and DII-4 ligands dramatically increases the IL-10 production (FIG. 10B).

Notch signaling pathway [3] = test: IL-10 induction in T helper cells cultured with CD11c+ dendritic cells, IL-12 and/or CpG (Example 11); format: cell-based, mouse; settings: 125 nM inhibitor, OVA peptide, 5 days, FIG. 12
Description: Antigen-specific (OVA-TZR transgenic) naive CD4+CD25-CD62L+T helper cells were isolated using flow cytometry, cultured with CD11c+ dendritic cells from spleen and lymphatic nodes (at a ratio of 20:1) in the presence of IL-12 (10 ng/ml) and/or 1 μM CpG and stimulated with OVA peptide (0.2 μg/ml). After 5 days the cells were restimulated with PMA/ionomycin, and their cytokine expression was analyzed using intracellular staining.
The expression of IL-10 can be blocked by a specific inhibitor of the Notch signaling pathway (γ-secretase inhibitor, Calbiochem, 125 nM).

[4] = tested on: CD11c-positive dendritic cells; test: Expression of Notch ligands in dendritic cells after TLR stimulation (Example 10); format: cell-based, mice; settings: stimulation for 15 h; 50 μg/ml pIC, 1 μg/ml LPS, 1 μg/ml flagellin or 1 μM CpG; FIG. 11
Description: CD11c-positive dendritic cells were isolated from spleen and lymphatic nodes of naive mice using flow cytometry and stimulated with 50 μg/ml pIC (TLR3), 1 μg/ml LPS (TLR4), 1 μg/ml flagellin (TLR5) or 1 μM CpG (TLR9) for 15 h.

STAT4 = test: IL-10 production (ELISA) of Notch3IC-transduced Th cells cultured with interleukin 27 (Example 5); format: cell-based, mice; settings: 10 ng/ml interleukin 27, wild-type vs STAT4-deficient, FIG. 6
Description: Naive CD4+-CD25-CD62L+T helper cells from wild-type (C57BU6) or STAT4-deficient mice were isolated using flow cytometry. The cells were subsequently cultured with irradiated (30 Gy) MHCII+ antigen-presenting cells at a ratio of 1:4 in the presence of interleukin 27 (10 ng/ml). Stimulation was effected polyclonally using 0.5 μg/ml anti-CD3 and 1 μg/ml anti-CD28. After 24 h the cells were retro-virally transduced with active Notch3 (Notch3IC). To this end, the cells were centrifuged with virus supernatant for 75 min at 750×g and 32° C. After 5 days the cells were restimulated with PMA/ionomycin, and their cytokine production was analyzed using ELISA.
No IL-10 production is observed in the event of STAT4-deficient cells.

C[C@H](NC(=O)Cc1cc(F)cc(F)c1)C(=O)N[C@@H]1C(=O)N(C)c2ccccc2-c2ccccc21 [DBZ]
expression of IL-10 (IFN-γ/IL-10 double-positive cells) (Notch): blocked

CC(C)C[C@H](NC(=O)[C@H](Cc1ccccc1)C[C@@H](O)[C@H](Cc1ccccc1)NC(=O)OC(C)(C)C)C(=O)N[C@@H](Cc1ccccc1)C(N)=O [Insolution γ-secretase inhibitor X]
IL-10 expression, naive T cells cocultured with plasmacytoid dendritic cells (Notch signaling pathway [1]; FIG. 16A): blocked
IL-10 production, memory T cells cocultured with plasmacytoid or myeloid dendritic cells (Notch signaling pathway [1]; FIG. 16B): blocked in either case
IL-10 production induced by coculturing with Delta-like ligands (Notch signaling pathway [2]): blocked
expression of IL-10 in the T cells (Notch signaling pathway [3]): blocked

flagellin
Expression of Delta-like 1 [4]: largely unchanged
Expression of Jagged 1 [4]: largely unchanged
expression of the Delta-like 4 Notch ligand [4]: enhanced

B1: IL-27: STAT4-activating cytokine of the IL-12 family (protein, UniProt Q8NEV9 29-243; Q14213 21-229, looked up)
Interleukin-27 subunit alpha: FPRPPGRPQLSLQELRREFTVSLHLARKLLSEVRGQAHRFAESHLPGVNLYLLPLGEQLPDVSLTFQAWRRLSDPERLCFISTTLQPFHALLGGLGTQGRWTNMERMQLWAMRLDLRDLQRHLRFQVLAAGFNLPEEEEEEEEEEEEERKGLLPGALGSALQGPAQVSWPQLLSTYRLLHSLELVLSRAVRELLLLSKAGHSVWPLGFPTLSPQP
Interleukin-27 subunit beta: RKGPPAALTLPRVQCRASRYPIAVDCSWTLPPAPNSTSPVSFIATYRLGMAARGHSWPCLQQTPTSTSCTITDVQLFSMAPYVLNVTAVHPWGSSSSFVPFITEHIIKPDPPEGVRLSPLAERQLQVQWEPPGSWPFPEIFSLKYWIRYKRQGAARFHRVGPIEATSFILRAVRPRARYYVQVAAQDLTDYGELSDWSLPATATMSLGK
IL-10 production together with Notch, STAT4-dependent (STAT4): induction of IL-10
